{
  "source": "patent US20220274979A1",
  "about": "(Bayer Pharma Aktiengesellschaft, priority 2018, published 2022)",
  "data": [
    {"target": "T1, hSOS1 (hSOS1-mediated loading of hK-RasG12C-GDP) (Homo sapiens, UniProt Q07889)", "T1 construct": "hSOS1 (amino acid 564-1049); made in house; host or cells: E. coli BL21 (DE3)", "T1 sequence (Q07889 with tags, fused parts or gaps)": "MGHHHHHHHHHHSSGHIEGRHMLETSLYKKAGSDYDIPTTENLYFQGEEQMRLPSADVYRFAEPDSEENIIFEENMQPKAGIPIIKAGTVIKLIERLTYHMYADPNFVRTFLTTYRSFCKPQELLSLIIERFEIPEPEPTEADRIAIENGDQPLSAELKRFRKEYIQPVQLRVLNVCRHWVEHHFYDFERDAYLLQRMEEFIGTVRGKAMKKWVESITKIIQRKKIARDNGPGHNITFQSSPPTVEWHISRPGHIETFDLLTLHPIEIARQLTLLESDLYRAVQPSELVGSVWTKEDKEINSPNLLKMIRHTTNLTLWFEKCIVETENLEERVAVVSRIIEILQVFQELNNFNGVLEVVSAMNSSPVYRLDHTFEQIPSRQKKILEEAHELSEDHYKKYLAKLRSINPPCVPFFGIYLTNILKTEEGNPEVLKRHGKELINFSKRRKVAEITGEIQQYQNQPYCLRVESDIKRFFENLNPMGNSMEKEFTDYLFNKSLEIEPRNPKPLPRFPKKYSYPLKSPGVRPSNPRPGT", "assay": "Biochemical Assay 3: hK-RasG12C activation assay by hSOS1 (loading with fluorescent GTP analog, HTRF)", "conditions": "no GTP", "excerpt": "Biochemical Assay 3: hK-RasG12C Activation Assay by hSOS1\nK-Ras is a small GTPase that can bind GDP and GTP. The guanine nucleotide exchange factor SOS1 catalyzes the activation of K-Ras by promoting the exchange of GDP to GTP. SOS1 binds to K-Ras-GDP thereby opening the GDP-binding pocket to facilitate GDP release. Rebinding of excess nucleotide leads to dissociation of the K-Ras-SOS1 intermediate complex leaving K-Ras loaded with the nucleotide.\nThis assay quantifies human SOS1-(hSOS1-)mediated loading of human K-Ras^G12C-GDP (hK-RasG12C-GDP) with a fluorescent GTP-analog. Detection of successful loading is achieved by measuring homogenous time-resolved fluorescence resonance energy transfer (HTRF) from antiGST-Terbium (FRET donor) bound to GST-hK-RasG12C (see below) to the loaded fluorescent GTP analog (FRET-acceptor).\nThe fluorescent GTP-analog EDA-GTP-Dy647P1 (2′/3′-O-(2-Aminoethyl-carbamoyl)-guanosine-5′-triphosphate labelled with Dy647P1 (Dyomics GmbH, Germany)) was synthesized by Jena Biosciences GmbH (Germany) and supplied as a 1 mM aqueous solution.\nThe assay buffer contained 10 mM HEPES pH 7.4 (Applichem), 150 mM NaCl (Sigma), 5 mM MgCl2 (Sigma), 1 mM DTT (Thermofisher), 0.05% BSA Fraction V, pH 7.0, (ICN Biomedicals), 0.0025% (v/v) Igepal (Sigma).\nConcentrations of protein batches used were optimized to be within the linear range of the HTRF signal. A hRas working solution was prepared in assay buffer containing typically 100 nM GST-hK-RasG12C and 2 nM antiGST-Tb (Cisbio, France). A hSOS1 working solution was prepared in assay buffer containing typically 20 nM hSOS1 and 200 nM EDA-GTP-Dy647P1. An inhibitor control solution was prepared in assay buffer containing 200 nM EDA-GTP-Dy647P1 without hSOS1.\nFifty nl of a 100-fold concentrated solution of the test compound in DMSO were transferred into a black microtiter test plate (384 or 1536, Greiner Bio-One, Germany) For this, either a Hummingbird liquid handler (Digilab, Mass., USA) or an Echo acoustic system (Labcyte, Calif., USA) was used.\nAll steps of the assay were performed at 20° C. A volume of 2.5 μl of the hRas working solution was added to all wells of the test plate using a Multidrop dispenser (Thermo Labsystems). After 10 min. preincubation, 2.5 μl of the hSOS1 working solution were added to all wells except for those wells at the side of the test plate that were subsequently filled with 2.5 μl of the inhibitor control solution. After […] incubation the fluorescence was measured with a Pherastar (BMG, Germany) using the HTRF module (excitation 337 nm, emission 1: 620 nm, emission 2:665 nm).\nIC50 values were calculated by 4-Parameter fitting using a commercial software package (Genedata Screener, Switzerland).", "units": {"IC50": "nM"}, "values": [
      {"smiles": "Cc1nc(N[C@H](C)c2cccc(Br)c2)c2cc(OCC3CC3)ncc2n1", "note": "[Example 75, N-[(1R)-1-(3-bromophenyl)ethyl]-6-(cyclopropylmethoxy)-2-methylpyrido[3,4-d]pyrimidin-4-amine]", "IC50": 15200},
      {"smiles": "Cc1nc(NC(C)c2ccc(-c3ccccc3CN(C)C)s2)c2cc(N3CC(NC(=O)CC4CC4)C3)ncc2n1", "note": "(stereo not shown) [Example 91, 2-cyclopropyl-N-[1-(4-{[1-(5-{2-[(dimethylamino)methyl]phenyl}thiophen-2-yl)ethyl]amino}-2-methylpyrido[3,4-d]pyrimidin-6-yl)azetidin-3-yl]acetamide]", "IC50": 179},
      {"smiles": "Cc1nc(NC(C)c2ccc(-c3ccccc3CN(C)C)s2)c2cc(NCC3CCNC(=O)C3)ncc2n1", "note": "(stereo not shown) [Example 86, 4-{[(4-{[1-(5-{2-[(dimethylamino)methyl]phenyl}thiophen-2-yl)ethyl]amino}-2-methylpyrido[3,4-d]pyrimidin-6-yl)amino]methyl}piperidin-2-one]", "IC50": 144},
      {"smiles": "Cc1nc(N[C@H](C)c2cccc(Br)c2)c2cc(OCCCN(C)C)ncc2n1", "note": "[Example 70, N-[(1R)-1-(3-bromophenyl)ethyl]-6-[3-(dimethylamino)propoxy]-2-methylpyrido[3,4-d]pyrimidin-4-amine]", "IC50": 1340},
      {"smiles": "CC(=O)NCCOc1cc2c(N[C@H](C)c3cccc(Br)c3)nc(C)nc2cn1", "note": "[Example 62, N-{2-[(4-{[(1R)-1-(3-bromophenyl)ethyl]amino}-2-methylpyrido[3,4-d]pyrimidin-6-yl)oxy]ethyl}acetamide]", "IC50": 735},
      {"smiles": "CNCc1ccccc1-c1ccc(C(C)Nc2nc(C)nc3cnc(Oc4ccc(N5CCCC5=O)cc4)cc23)s1", "note": "(stereo not shown) [Example 38, 1-{4-[(2-methyl-4-{[1-(5-{2-[(methylamino)methyl]phenyl}thiophen-2-yl)ethyl]amino}pyrido[3,4-d]pyrimidin-6-yl)oxy]phenyl}pyrrolidin-2-one]", "IC50": 269},
      {"smiles": "CC(=O)NC1CCN(c2cc3c(N[C@H](C)c4cccc(Br)c4)nc(C)nc3cn2)C1", "note": "(mixture of isomers) [Example 42, N-[1-(4-{[(1R)-1-(3-bromophenyl)ethyl]amino}-2-methylpyrido[3,4-d]pyrimidin-6-yl)pyrrolidin-3-yl]acetamide]", "IC50": 366},
      {"smiles": "Cc1nc(N[C@H](C)c2cccc(Br)c2)c2cc(Oc3cccc(O)c3)ncc2n1", "note": "[Example 40, 3-[(4-{[(1R)-1-(3-bromophenyl)ethyl]amino}-2-methylpyrido[3,4-d]pyrimidin-6-yl)oxy]phenol]", "IC50": "> 20000"},
      {"smiles": "COc1cc2c(N[C@H](C)c3ccc(F)c(C4CC4)c3)nc(C)nc2cn1", "note": "[Example 12]", "IC50": 8170},
      {"smiles": "Cc1nc(N[C@H](C)c2cccc(Br)c2)c2nc(N(C)C)ccc2n1", "note": "[Example 31]", "IC50": "> 20000"},
      {"smiles": "Cc1nc(N[C@H](C)c2ccc(F)cc2)c2cc(OCC3CCOCC3)ncc2n1", "note": "[Example 11, N-[1R)-1-(4-fluorophenypethyl]-2-methyl-6-(tetrahydro-2H-pyran-4-ylmethoxy)-pyrido[3,4-d]pyrimidin-4-amine]", "IC50": 2490},
      {"smiles": "Cc1nc(NC(C)c2ccc(-c3ccccc3CN(C)C)s2)c2cc(OCCO)ncc2n1", "note": "(stereo not shown) [Example 74, 2-[(4-{[1-(5-{2-[(dimethylamino)methyl]phenyl}thiophen-2-yl)ethyl]amino}-2-methylpyrido[3,4-d]pyrimidin-6-yl)oxy]ethanol]", "IC50": 107},
      {"smiles": "Cc1nc(N[C@H](C)c2cccc(Br)c2)c2nc(N3CCOCC3)ccc2n1", "note": "[Example 27, N-[(1R)-1-(3-bromophenyl)ethyl]-2-methyl-6-(morpholin-4-yl)pyrido[3,2-d]pyrimidin-4-amine]", "IC50": 10600},
      {"smiles": "Cc1nc(N[C@H](C)c2cccc(Br)c2)c2nc(OCc3ccccc3)ccc2n1", "note": "[Example 33, 6-(benzyloxy)-N-[(1R)-1-(3-bromophenyl)ethyl]-2-methylpyrido[3,2-d]pyrimidin-4-amine]", "IC50": "> 20000"},
      {"smiles": "Cc1nc(N[C@H](C)c2cccc(Br)c2)c2cc(NC3CCOCC3)ncc2n1", "note": "[Example 46]", "IC50": 12800},
      {"smiles": "Cc1nc(N[C@H](C)c2cccc(Br)c2)c2cc(NCCn3cccn3)ncc2n1", "note": "[Example 49, N4-[(1R)-1-(3-bromophenl)pethyl]-2-methyl-N6-[2-(1H-pyrazol-1-yl)ethyl]pyrido[3,4-d]pyrimidine-4,6-diamine]", "IC50": 6990},
      {"smiles": "Cc1nc(N[C@H](C)c2ccc(F)cc2)c2cc(OC(C)C)ncc2n1", "note": "[Example 15]", "IC50": 8790},
      {"smiles": "Cc1nc(NC(C)c2ccc(-c3ccccc3CN(C)C)s2)c2cc(Oc3cccc(O)c3)ncc2n1", "note": "(stereo not shown) [Example 52, 3-[(4-{[1-(5-{2-[(dimethylamino)methyl]phenyl}thiophen-2-yl)ethyl]amino}-2-methylpyrido[3,4-d]pyrimidin-6-yl)oxy]phenol]", "IC50": 532},
      {"smiles": "COc1ncc2nc(C)nc(N[C@H](C)c3cccc(Br)c3)c2n1", "note": "[Example 24, N-[(1R)-1-(3-bromophenyl)ethyl]-6-methoxy-2-methylpyrimido[5,4-d]pyrimidin-4-amine]", "IC50": "> 20000"},
      {"smiles": "Cc1nc(NC(C)c2ccc(-c3ccccc3CN(C)C)s2)c2cc(OCCCO)ncc2n1", "note": "(stereo not shown) [Example 76, 3-[(4-{[1-(5-{2-[(dimethylamino)methyl]phenyl}thiophen-2-yl)ethyl]amino}-2-methylpyrido[3,4-d]pyrimidin-6-yl)oxy]propan-1-ol]", "IC50": 73},
      {"smiles": "COc1cc2c(N[C@H](C)c3cccc(Br)c3)nc(C)nc2cn1", "note": "[Example 57, N-[(1R)-1-(3-bromophenyl)ethyl]-6-methoxy-2-methylpyrido[3,4-d]pyrimidin-4-amine]", "IC50": 1780},
      {"smiles": "Cc1nc(NC(C)c2ccc(-c3ccccc3CN(C)C)s2)c2cc(N3CC(NS(=O)(=O)Cc4ccccc4)C3)ncc2n1", "note": "(stereo not shown) [Example 95, N-[1-(4-{[1-(5-{2-[(dimethylamino)methyl]phenyl}thiophen-2-yl)ethyl]amino}-2-methylpyrido[3,4-d]pyrimidin-6-yl)azetidin-3-yl]-1-phenylmethanesulfonamide]", "IC50": 204},
      {"smiles": "Cc1nc(N[C@H](C)c2cccc(Br)c2)c2cc(NCCS(C)(=O)=O)ncc2n1", "note": "[Example 83]", "IC50": 1090},
      {"smiles": "Cc1nc(NC(C)c2ccc(-c3ccccc3CN(C)C)s2)c2cc(N3CC(NC(=O)Nc4ccccc4)C3)ncc2n1", "note": "(stereo not shown) [Example 96, 1-[1-(4-{[1-(5-{2-[(dimethylamino)methyl]phenyl}thiophen-2-yl)ethyl]amino}-2-methylpyrido[3,4-d]pyrimidin-6-yl)azetidin-3-yl]-3-phenylurea]", "IC50": 206},
      {"smiles": "Cc1nc(NC(C)c2ccc(-c3ccccc3CN(C)C)s2)c2cc(N3CC(NC(=O)Cc4ccccc4)C3)ncc2n1", "note": "(stereo not shown) [Example 89, N-[1-(4-{[1-(5-{2-[(dimethylamino)methyl]phenyl}thiophen-2-yl)ethyl]amino}-2-methylpyrido[3,4-d]pyrimidin-6-yl)azetidin-3-yl]-2-phenylacetamide]", "IC50": 132},
      {"smiles": "CCOc1cc2c(N[C@H](C)c3ccc(Br)cc3)nc(C)nc2cn1", "note": "[Example 13, N-[(1R)-1-(4-bromophenyl)ethyl]-6-ethoxy-2-methylpyrido[3,4-d]pyrimidin-4-amine]", "IC50": 7980},
      {"smiles": "CCOc1cc2c(N[C@H](C)c3cccc(S(C)(=O)=O)c3)nc(C)nc2cn1", "note": "[Example 7, 6-ethoxy-2-methyl-N-{(1R)-1-[3-(methylsulfonyl)phenyl]ethyl}pyrido[3,4-d]pyrimidin-4-amine]", "IC50": 2380},
      {"smiles": "Cc1nc(N[C@H](C)c2cccc(Br)c2)c2nc(Oc3ccccc3)ccc2n1", "note": "[Example 32, N-[(1R)-1-(3-bromophenyl)ethyl]-2-methyl-6-phenoxypyrido[3,2-d]pyrimidin-4-amine]", "IC50": "> 20000"}
    ]}
  ]
}
